# ChEMBL document CHEMBL5252618, “Discovery and Biosynthesis of Imidazolium Antibiotics from the Probiotic Bacillus licheniformis” (J Nat Prod, 2023)
# Several values for one entry are separate records, joined by “and”; a condition that tells them apart may be missing. Identical values can stand only once. Activity calls are given as the source filed them. The calls are words filed in the database; no cut-off is given here.
# How the values were obtained:
# HCT-116 = experiment: Cytotoxicity against human HCT-116 cells at 31.25 to 500 uM incubated for 24 hrs by CellTiter96 aqueous one solution based assay; assay type: functional, cell-based; conditions: dose 31.25-500 µM
# A549 = experiment: Cytotoxicity against human A549 cells at 31.25 to 500 uM incubated for 24 hrs by CellTiter96 aqueous one solution based assay; assay type: functional, cell-based; conditions: dose 31.25-500 µM
# HepG2 = experiment: Cytotoxicity against human HepG2 cells at 31.25 to 500 uM incubated for 24 hrs by CellTiter96 aqueous one solution based assay; assay type: functional, cell-based; conditions: dose 31.25-500 µM
# HT-1080 = experiment: Cytotoxicity against human HT-1080 cells at 31.25 to 500 uM incubated for 24 hrs by CellTiter96 aqueous one solution based assay; assay type: functional, cell-based; conditions: dose 31.25-500 µM
# WI-38 = experiment: Cytotoxicity against human WI-38 cells at 31.25 to 500 uM incubated for 24 hrs by CellTiter96 aqueous one solution based assay; assay type: toxicity, cell-based; conditions: wi-38, 24 h, dose 31.25-500 µM
# [1] = Cytotoxicity against human Chang liver cells at 31.25 to 500 uM incubated for 24 hrs by CellTiter96 aqueous one solution based assay; assay type: toxicity, cell-based; conditions: dose 31.25-500 µM
# NIH3T3 = experiment: Cytotoxicity against mouse NIH3T3 cells at 31.25 to 500 uM incubated for 24 hrs by CellTiter96 aqueous one solution based assay; assay type: toxicity, cell-based; conditions: nih3t3, 24 h, dose 31.25-500 µM
# [2] = system: Lacticaseibacillus paracasei; experiment: Antibacterial activity against Lacticaseibacillus paracasei subsp.paracasei ATCC25302 assessed as bacterial growth inhibition incubated for overnight by visual analysis; assay type: functional; conditions: subsp. paracasei ATCC 25302
# [3] = system: Brevibacterium epidermidis; experiment: Antibacterial activity against Brevibacterium epidermidis ATCC35514 assessed as bacterial growth inhibition incubated for overnight by visual analysis; assay type: functional
# Staphylococcus aureus [4] = experiment: Antibacterial activity against methicillin-resistant Staphylococcus aureus USA300 assessed as bacterial growth inhibition incubated for overnight by visual analysis; assay type: functional
# Escherichia coli [5] = experiment: Antibacterial activity against Escherichia coli MG1655 assessed as bacterial growth inhibition incubated for overnight by visual analysis; assay type: functional
# Acinetobacter baumannii [6] = experiment: Antibacterial activity against Acinetobacter baumannii assessed as bacterial growth inhibition incubated for overnight by visual analysis; assay type: functional
# Acinetobacter baumannii [7] = experiment: Antibacterial activity against Acinetobacter baumannii harboring LPS-deficient mutant lpxC assessed as bacterial growth inhibition incubated for overnight by visual analysis; assay type: functional
# RAW264.7 = experiment: Antiinflammatory activity in mouse RAW 264.7 cells assessed as inhibition of LPS-induced NO production at 10 uM pretreated for 1 hr followed by LPS stimulation and further incubated for 24 hrs by griess reagent based assay; assay type: functional, cell-based; conditions: time 25.0 hrs
# Staphylococcus aureus [8] = experiment: Antibacterial activity against methicillin-resistant Staphylococcus aureus ATCC 33591 assessed as bacterial growth inhibition incubated for 18 hrs; assay type: functional
# Bacillus subtilis = experiment: Antibacterial activity against Bacillus subtilis NRS-231 assessed as bacterial growth inhibition incubated for 18 hrs; assay type: functional
# Escherichia coli [9] = experiment: Antibacterial activity against Escherichia coli ATCC 25922 assessed as bacterial growth inhibition incubated for 18 hrs; assay type: functional
# Escherichia coli [10] = experiment: Synergistic antibacterial activity against wild type Escherichia coli MG1655 assessed as potentiation of colistin-induced antibacterial effect by measuring colistin MIC at 0.32 to 84 ug/ml incubated for 24 hrs by checker board assay (reference value: 2.5 ug/ml); assay type: functional; conditions: dose 0.32-84 µg/ml
# Escherichia coli [11] = experiment: Synergistic antibacterial activity against wild type Escherichia coli MG1655 assessed as potentiation of colistin-induced antibacterial effect by measuring […] in colistin MIC at 0.32 to 84 ug/ml incubated for 24 hrs by checker board assay relative to control; assay type: functional; conditions: dose 0.32-84 µg/ml
# Acinetobacter baumannii [12] = experiment: Synergistic antibacterial activity against Acinetobacter baumannii assessed as potentiation of colistin-induced antibacterial effect by measuring colistin MIC at 0.32 to 84 ug/ml incubated for 24 hrs by checker board assay (reference value: 0.2 ug/ml); assay type: functional; conditions: dose 0.32-84 µg/ml
# Acinetobacter baumannii [13] = experiment: Synergistic antibacterial activity against Acinetobacter baumannii assessed as potentiation of colistin-induced antibacterial effect by measuring […] in colistin MIC at 0.32 to 84 ug/ml incubated for 24 hrs by checker board assay relative to control; assay type: functional; conditions: dose 0.32-84 µg/ml
Compound,Activity (HCT-116),Activity (A549),Activity (HepG2),Activity (HT-1080),Activity (WI-38),Activity [1],Activity (NIH3T3),MIC [2],MIC [3],MIC (Staphylococcus aureus [4]),MIC (Escherichia coli [5]) [µM],MIC (Acinetobacter baumannii [6]) [µM],MIC (Acinetobacter baumannii [7]),inhibition (RAW264.7),other results
CCCC(=O)C(C)NCCc1c[nH]c2ccccc12 (stereo not drawn),inactive,inactive,inactive,inactive,Non-Toxic,Non-Toxic,Non-Toxic,–,–,–,–,–,–,–,–
Cc1c(C)[n+](CCc2c[nH]c3ccccc23)cn1CCc1c[nH]c2ccccc12,inactive,inactive,inactive,inactive,Non-Toxic,Non-Toxic,Non-Toxic,19 µg/mL and 50 µM,> 100 µM,> 100 µM,> 100,> 100,38 µg/mL and 100 µM,–,–
Cc1c(C)[n+](CCc2c[nH]c3ccccc23)c(C)n1CCc1ccccc1,inactive,inactive,inactive,inactive,Non-Toxic,Non-Toxic,Non-Toxic,> 36 µg/mL and > 100 µM,–,–,–,–,–,inactive,–
Cc1c(C)[n+](CCc2c[nH]c3ccccc23)c(C)n1CCc1c[nH]c2ccccc12,inactive,inactive,inactive,inactive,Non-Toxic,Non-Toxic,Non-Toxic,20 µg/mL and 50 µM,> 100 µM,20 µg/mL and 50 µM,> 100,> 100,40 µg/mL and 100 µM,–,MIC (Staphylococcus aureus [8]): > 50 µM; MIC (Bacillus subtilis): > 50 µM; MIC (Escherichia coli [9]): > 50 µM
CC(=O)c1cc(C)c(C)n1CCc1c[nH]c2ccccc12,inactive,inactive,inactive,inactive,Non-Toxic,Non-Toxic,Non-Toxic,–,–,–,–,–,–,Active,–
O=c1[nH]cc(F)c(=O)[nH]1 [FLUOROURACIL],–,–,–,–,Toxic,Toxic,Toxic,–,–,–,–,–,–,–,–
CCCc1n(CCc2c[nH]c3ccccc23)c(C)c(C)[n+]1CCc1c[nH]c2ccccc12,inactive,inactive,inactive,inactive,Non-Toxic,Non-Toxic,Non-Toxic,0.7 µg/mL and 1.56 µM,1.3 µg/mL and 3.13 µM,1.3 µg/mL and 3.13 µM,> 100,> 100,2.6 µg/mL and 6.25 µM,–,MIC (Escherichia coli [10]): 0.313 mg/L; fold change (FC) (Escherichia coli [11]): 8; MIC (Acinetobacter baumannii [12]): 0.05 mg/L; fold change (FC) (Acinetobacter baumannii [13]): 4
Cc1c(C)[n+](CCc2c[nH]c3ccccc23)cn1CCc1ccccc1,inactive,inactive,inactive,inactive,Non-Toxic,Non-Toxic,Non-Toxic,> 34 µg/mL and > 100 µM,–,–,–,–,–,–,–
CC(=O)NCCc1ccccc1,inactive,inactive,inactive,inactive,Non-Toxic,Non-Toxic,Non-Toxic,–,–,–,–,–,–,–,–
CCCc1n(CCC(C)C)c(C)c(C)[n+]1CCc1c[nH]c2ccccc12,inactive,inactive,inactive,inactive,Non-Toxic,Non-Toxic,Non-Toxic,9 µg/mL and 25 µM,> 100 µM,> 100 µM,> 100,> 100,9 µg/mL and 25 µM,Active,–
CCCc1c(C)[n+](CCc2c[nH]c3ccccc23)c(CCC)n1CCc1c[nH]c2ccccc12,Active,Active,Active,Active,Non-Toxic,Non-Toxic,Non-Toxic,6 µg/mL and 12.5 µM,11 µg/mL and 25 µM,11 µg/mL and 25 µM,> 100,> 100,11 µg/mL and 25 µM,Active,–
NCCc1c[nH]c2ccccc12 [TRYPTAMINE],inactive,inactive,inactive,inactive,Non-Toxic,Non-Toxic,Non-Toxic,–,–,–,–,–,–,–,–
CC(=O)C(C)NCCc1c[nH]c2ccccc12 (stereo not drawn),inactive,inactive,inactive,inactive,Non-Toxic,Non-Toxic,Non-Toxic,6 µg/mL and 25 µM,12 µg/mL and 50 µM,12 µg/mL and 50 µM,> 100,–,–,–,–
Cc1c(C)[n+](CCc2c[nH]c3ccccc23)c(CC(C)C)n1CCc1c[nH]c2ccccc12,inactive,inactive,inactive,inactive,Non-Toxic,Non-Toxic,Non-Toxic,22 µg/mL and 50 µM,> 100 µM,> 100 µM,> 100,> 100,22 µg/mL and 50 µM,inactive,–
